Measurements taken from patent US20250163057A1, “DCN-1 MODULATING COMPOUNDS AND METHODS OF USE THEREOF” (Cellarity, Inc., priority 2023, published 2025).
Like-named read-outs stand apart in the source and are kept apart here.

What was measured:
[1] = tested on: Cullin-3 (CUL3) neddylation; assay: AlphaLISA assay for Cullin-3 (CUL3) neddylation in TF 1 cells; type: cell-based; settings: Homo sapiens, TF-1, 3 h, 3 hours treatment
Procedure, shortened: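 Neddylated CUL3 was quantified by AlphaLISA in lysates of TF 1 cells exposed for 3 h to test compound in IMDM without supplements. Percent inhibition set between vehicle and 1 μM DI-1548 positive control; IC50 derived by Hill-equation fitting of dose-response curves.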

[2] = target: DCN1 (DCUND1) protein PONY domain (Homo sapiens (Human), UniProt Q96GG9); assay: TR-FRET assay, DCN1 binding with FAM-labeled probe
Chain of DCN1 (DCUND1) protein PONY domain (Q96GG9 60-248): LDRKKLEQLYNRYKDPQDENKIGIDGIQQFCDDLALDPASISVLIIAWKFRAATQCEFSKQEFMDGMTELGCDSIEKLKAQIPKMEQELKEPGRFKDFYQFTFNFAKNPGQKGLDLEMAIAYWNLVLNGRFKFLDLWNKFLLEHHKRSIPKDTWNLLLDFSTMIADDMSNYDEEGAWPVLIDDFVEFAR
Procedure, shortened: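 Binding was read as the TR-FRET ratio between a FAM-tagged inhibitor probe and Tb-labeled biotinylated E. coli-expressed DCN1 PONY domain, measured 1, 5 and 24 h after compound addition. The two setups used 5 nM protein/20 nM FAM-probe or 0.31 nM protein/900 nM total probe (100 nM labeled), in TritonX buffer with 200 mM NaCl.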

[3] = tested on: fetal hemoglobin gene HBG1; assay: HBG1 Nanostring Assay in CD34+ HSPC erythroid differentiation culture; type: cell-based, human; settings: for EC50: Homo sapiens, 240 h, HBG1 induction, Day10 of erythroid differentiation; for Nanostring Ymax obs (%): relative to a control compound (C1)
Procedure, shortened: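 HBG1 counts came from direct nCounter hybridization (67° C, 22 h) of day-10 lysates, normalized to ERCC positive controls and a housekeeping gene, giving EC50 and Ymax versus a reference compound. Compounds in 0.1% DMSO were present from day −2 while cells underwent EPO/SCF/IL-3 erythroid differentiation, with IL-3 dropped at day 7, at 37° C.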

DCN1 protein = DCN1 protein (Homo sapiens (Human), UniProt Q96GG9); assay: Intact Protein MS Analysis with the RapidFire-TOF System (covalent adduct formation); type: binding; settings: MS Emax; 400 nM DCN1, 3 hours at room temperature
Chain of DCN1 protein (Q96GG9 whole entry): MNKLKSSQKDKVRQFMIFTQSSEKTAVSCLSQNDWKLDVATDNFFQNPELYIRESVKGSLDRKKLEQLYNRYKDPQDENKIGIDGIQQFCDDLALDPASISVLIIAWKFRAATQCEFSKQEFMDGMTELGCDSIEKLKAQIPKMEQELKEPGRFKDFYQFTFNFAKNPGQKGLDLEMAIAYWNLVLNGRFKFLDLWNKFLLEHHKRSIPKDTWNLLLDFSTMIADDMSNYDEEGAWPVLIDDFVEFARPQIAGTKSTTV
Procedure, shortened: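 Tag-cleaved human DCN1 (400 nM) expressed in E. coli, in 25 mM Tris-HCl, 200 mM NaCl, 1 mM DTT, was incubated with 11 compound concentrations for 3 h at room temperature and quenched with 0.2% formic acid. Intact-protein Q-TOF MS with deconvolution detected the compound adduct mass.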

[4] = 24 hr after treatment with compound, read-out: TR FRET IC50 24 hr
[5] = read-out: TR FRET IC50 1 hr, 1 hr after treatment with compound
[6] = TR FRET IC50 1 hr (nM), 1 hr after treatment with compound

Row | Structure (SMILES) | IC50 [1] [µM] | IC50 [2, 4] [nM] | IC50 [2, 5] [nM] | EC50 [3] [µM] | Nanostring Ymax obs (%) [3] | % Adduct Formation (DCN1 protein) | IC50 [2, 6] [nM]
1 | CCN1C(=O)[C@@H](NC(=O)c2cccc(C(F)(F)F)c2)[C@@H](c2ccc(F)cc2)c2c(NC(=O)C3=CCCC3)nn(-c3ccccc3)c21 (racemic) [Compound I-65] | ≤ 0.1 | 200 to 1000 | ≤ 200 | > 1 | ++ (Nanostring Ymax greater than 50.0 and less than or equal to 100.0) | + (MS Emax % adduct formation greater than or equal to 0.0 and less than or equal to 30.0) | 
2 | C=C(CN1CCOCC1)C(=O)Nc1nn(-c2ccccc2)c2c1[C@H](c1ccc(F)cc1)[C@H](NC(=O)c1cccc(C(F)(F)F)c1)C(=O)N2CC (racemic) [Compound I-75] | ≤ 0.1 | ≤ 200 | ≤ 200 |  | +++ (Nanostring Ymax greater than 100.0) | +++ (MS Emax % adduct formation greater than 80.0 and less than or equal to 100.0) | 
3 | CCN1C(=O)[C@@H](NC(=O)c2cccc(C(F)(F)F)c2)[C@H](c2ccc(F)cc2)c2c(CNC(=O)C3=C(C(=O)OC)CC3)nn(-c3ccccc3)c21 (racemic) [Compound I-97] | ≤ 0.1 | 200 to 1000 | ≤ 200 | 0.1 to 1 | ++ (Nanostring Ymax greater than 50.0 and less than or equal to 100.0) | + (MS Emax % adduct formation greater than or equal to 0.0 and less than or equal to 30.0) | 
4 | C=C(CC(=O)OC)C(=O)NCc1nn(-c2ccccc2)c2c1[C@H](c1ccc(F)cc1)[C@H](NC(=O)c1cccc(C(F)(F)F)c1)C(=O)N2CC (racemic) [Compound I-103] | > 1 | 200 to 1000 |  | 0.1 to 1 | + (Nanostring Ymax greater than or equal to 0.0 and less than or equal to 50.0) | + (MS Emax % adduct formation greater than or equal to 0.0 and less than or equal to 30.0) | 200 to 1000
5 | CCN1C(=O)[C@@H](NC(=O)c2cccc(C(F)(F)F)c2)[C@@H](c2ccc(F)cc2)c2c(CN(C)C(=O)/C=C/C(=O)OC)nn(-c3ccccc3)c21 (racemic) [Compound I-107, methyl (˜{E})-4-[[(4˜{R},5˜{S})-7-ethyl-4-(4-fluorophenyl)-6-oxo-1-phenyl-5-[[3-(trifluoromethyl)benzoyl]amino]-4,5-dihydropyrazolo[3,4-b]pyridine-3-yl]methyl-methyl-amino]-4-oxo-but-2-enoate] | ≤ 0.1 | ≤ 200 | ≤ 200 | ≤ 0.1 | +++ (Nanostring Ymax greater than 100.0) | +++ (MS Emax % adduct formation greater than 80.0 and less than or equal to 100.0) | 
6 | CCN1C(=O)[C@@H](NC(=O)c2cccc(C(F)(F)F)c2)[C@@H](c2ccc(F)cc2)c2c(CN3CC=CS3(=O)=O)nn(-c3ccccc3)c21 (racemic) [Compound I-110] | 0.1 to 1 | 200 to 1000 |  | > 1 | + (Nanostring Ymax greater than or equal to 0.0 and less than or equal to 50.0) | + (MS Emax % adduct formation greater than or equal to 0.0 and less than or equal to 30.0) | 200 to 1000
7 | C=CC(=O)Nc1nn(-c2ccccc2)c2c1[C@H](c1ccc(F)cc1)[C@H](NC(=O)c1cccc(C(F)(F)F)c1)C(=O)N2CC (racemic) [Compound I-122] | 0.1 to 1 | ≤ 200 | ≤ 200 | > 1 | ++ (Nanostring Ymax greater than 50.0 and less than or equal to 100.0) | ++ (MS Emax % adduct formation greater than 30.0 and less than or equal to 80.0) | 
8 | CCN1C(=O)[C@@H](NC(=O)c2cccc(C(F)(F)F)c2)[C@@H](c2ccc(F)cc2)c2c(NC(=O)/C=C/C(=O)OC)nn(-c3ccccc3)c21 (racemic) [Compound I-136] | ≤ 0.1 |  |  | > 1 | + (Nanostring Ymax greater than or equal to 0.0 and less than or equal to 50.0) | +++ (MS Emax % adduct formation greater than 80.0 and less than or equal to 100.0) | 200 to 1000
9 | CCN1C(=O)[C@@H](NC(=O)c2cccc(C(F)(F)F)c2)[C@@H](c2ccc(F)cc2)c2c(CNC(=O)CC#N)nn(-c3ccccc3)c21 (racemic) [Compound I-147, rac-N-((4R,5R)-3-((2-cyanoacetamido)methyl)-7-ethyl-4-(4-fluorophenyl)-6-oxo-1-phenyl-4,5,6,7-tetrahydro-1H-pyrazolo[3,4-b]pyridine-5-yl)-3-(trifluoromethyl)benzamide] | 0.1 to 1 | 200 to 1000 |  | > 1 | + (Nanostring Ymax greater than or equal to 0.0 and less than or equal to 50.0) | + (MS Emax % adduct formation greater than or equal to 0.0 and less than or equal to 30.0) | 1000 to 3000
10 | CCN1C(=O)[C@@H](NC(=O)c2cccc(C(F)(F)F)c2)[C@@H](c2ccc(F)cc2)c2c(NC(=O)CCl)nn(-c3ccccc3)c21 (racemic) [Compound I-161] | ≤ 0.1 | ≤ 200 |  | 0.1 to 1 | ++ (Nanostring Ymax greater than 50.0 and less than or equal to 100.0) | + (MS Emax % adduct formation greater than or equal to 0.0 and less than or equal to 30.0) | 1000 to 3000
11 | CCN1C(=O)[C@@H](NC(=O)c2cccc(C(F)(F)F)c2)[C@@H](c2ccc(F)cc2)c2c(C(=O)N3CC(F)(F)C[C@H]3C#N)nn(-c3ccccc3)c21 (racemic) [Compound I-251, N-((4RS,5RS)-3-(I-2-cyano-4,4-difluoropyrrolidine-1-carbonyl)-7-ethyl-4-(4-fluorophenyl)-6-oxo-1-phenyl-4,5,6,7-tetrahydro-1H-pyrazolo[3,4-b]pyridine-5-yl)-3-(trifluoromethyl)benzamide] | ≤ 0.1 | ≤ 200 |  | 0.1 to 1 | ++ (Nanostring Ymax greater than 50.0 and less than or equal to 100.0) | +++ (MS Emax % adduct formation greater than 80.0 and less than or equal to 100.0) | ≤ 200
12 | CCN1C(=O)[C@@H](NC(=O)c2cccc(C(F)(F)F)c2)[C@@H](C2CC2)c2c(C(=O)N3CCNC[C@@H]3C#N)nn(C3CCOCC3)c21 (single isomer, unassigned) [Compound I-371] | ≤ 0.1 | ≤ 200 |  | 0.1 to 1 | ++ (Nanostring Ymax greater than 50.0 and less than or equal to 100.0) | +++ (MS Emax % adduct formation greater than 80.0 and less than or equal to 100.0) | 200 to 1000
13 | CCN1C(=O)[C@H](NC(=O)c2cccc(C(F)(F)F)c2)[C@H](c2ccc(F)cc2)c2c([C@@H](C)NC#N)nn(-c3ccccc3)c21 [Compound I-13, N-((4R,5R)-3-((R)-1-cyanamidoethyl)-7-ethyl-4-(4-fluorophenyl)-6-oxo-1-phenyl-4,5,6,7-tetrahydro-1H-pyrazolo[3,4-b]pyridin-5-yl)-3-(trifluoromethyl)benzamide] | 0.1 to 1 | 1000 to 3000 |  | > 1 | + (Nanostring Ymax greater than or equal to 0.0 and less than or equal to 50.0) | ++ (MS Emax % adduct formation greater than 30.0 and less than or equal to 80.0) | 1000 to 3000
14 | CCN1C(=O)[C@H](NC(=O)c2cccc(C(F)(F)F)c2)[C@H](c2ccc(F)cc2)c2c(CN(C)C#N)nn(-c3ccccc3)c21 [Compound I-20] | > 1 | 1000 to 3000 |  | > 1 | + (Nanostring Ymax greater than or equal to 0.0 and less than or equal to 50.0) | ++ (MS Emax % adduct formation greater than 30.0 and less than or equal to 80.0) | 1000 to 3000
15 | C=C(C(=O)O)c1nn(-c2ccccc2)c2c1[C@@H](c1ccc(F)cc1)[C@@H](NC(=O)c1cccc(C(F)(F)F)c1)C(=O)N2CC [Compound I-77, 2-((4R,5R)-7-ethyl-4-(4-fluorophenyl)-6-oxo-1-phenyl-5-(3-(trifluoromethyl)benzamido)-4,5,6,7-tetrahydro-1H-pyrazolo[3,4-b]pyridin-3-yl)acrylic acid] | > 1 | 1000 to 3000 |  | > 1 | + (Nanostring Ymax greater than or equal to 0.0 and less than or equal to 50.0) | + (MS Emax % adduct formation greater than or equal to 0.0 and less than or equal to 30.0) | 1000 to 3000
